Experimental data published in PubChem BioAssay (NCI).
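Five compound concentrations were applied to cells in 96-well plates for 48 hours; endpoints were derived by simple linear interpolation of the resulting dose-response curve. GI50 is the concentration that inhibits growth by half. At the TGI there is no net growth.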

Tests used:
Experiment in all cases: NCI tumour cell line growth inhibition, 48 h
786-0 renal = tested on: 786-0 renal
A498 renal = tested on: A498 renal
ACHN renal = tested on: ACHN renal
BT-549 breast = tested on: BT-549 breast
CAKI-1 renal = tested on: CAKI-1 renal
COLO 205 colon = tested on: COLO 205 colon
DU-145 prostate = tested on: DU-145 prostate
HCC-2998 colon = tested on: HCC-2998 colon
HCT-116 colon = tested on: HCT-116 colon
HCT-15 colon = tested on: HCT-15 colon
HL-60(TB) leukemia = tested on: HL-60(TB) leukemia
HOP-62 NSCLC = tested on: HOP-62 NSCLC
HOP-92 NSCLC = tested on: HOP-92 NSCLC
HS 578T breast = tested on: HS 578T breast
HT29 colon = tested on: HT29 colon
IGROV1 ovarian = tested on: IGROV1 ovarian
K-562 leukemia = tested on: K-562 leukemia
KM12 colon = tested on: KM12 colon
LOX IMVI melanoma = tested on: LOX IMVI melanoma
M14 melanoma = tested on: M14 melanoma
MALME-3M melanoma = tested on: MALME-3M melanoma
MCF7 breast = tested on: MCF7 breast
MDA-MB-231 breast = tested on: MDA-MB-231 breast
MDA-MB-435 = tested on: MDA-MB-435
MOLT-4 leukemia = tested on: MOLT-4 leukemia
NCI-H226 lung = tested on: NCI-H226 lung
NCI-H23 lung = tested on: NCI-H23 lung
NCI-H460 lung = tested on: NCI-H460 lung
NCI/ADR-RES ovarian = tested on: NCI/ADR-RES ovarian
OVCAR-3 ovarian = tested on: OVCAR-3 ovarian
OVCAR-4 ovarian = tested on: OVCAR-4 ovarian
OVCAR-5 ovarian = tested on: OVCAR-5 ovarian
OVCAR-8 ovarian = tested on: OVCAR-8 ovarian
PC-3 prostate = tested on: PC-3 prostate
RPMI-8226 leukemia = tested on: RPMI-8226 leukemia
RXF 393 renal = tested on: RXF 393 renal
SF-268 CNS = tested on: SF-268 CNS
SF-295 CNS = tested on: SF-295 CNS
SF-539 CNS = tested on: SF-539 CNS
SK-MEL-2 melanoma = tested on: SK-MEL-2 melanoma
SK-MEL-28 melanoma = tested on: SK-MEL-28 melanoma
SK-MEL-5 melanoma = tested on: SK-MEL-5 melanoma
SK-OV-3 ovarian = tested on: SK-OV-3 ovarian
SN12C renal = tested on: SN12C renal
SNB-19 CNS = tested on: SNB-19 CNS
SNB-75 CNS = tested on: SNB-75 CNS
SR leukemia = tested on: SR leukemia
SW-620 colon = tested on: SW-620 colon
T-47D breast = tested on: T-47D breast
TK-10 renal = tested on: TK-10 renal
U251 CNS = tested on: U251 CNS
UACC-62 melanoma = tested on: UACC-62 melanoma
UO-31 renal = tested on: UO-31 renal

`COC(=O)[C@H](Cc1cn(C)cn1)NC(=O)[C@H](CC(C)C)NC(=O)Nc1cc(C(F)(F)F)cc(C(F)(F)F)c1` was tested, and the GI50 (786-0 renal) was > 10 µM, the TGI (786-0 renal) was > 10 µM and the GI50 (A498 renal) was > 10 µM. For the same compound, the TGI (A498 renal) was > 10 µM, the GI50 (ACHN renal) was > 10 µM and the TGI (ACHN renal) was > 10 µM. The GI50 (BT-549 breast) was > 10 µM, the TGI (BT-549 breast) was > 10 µM and the GI50 (CAKI-1 renal) was > 10 µM. For the same compound, the TGI (CAKI-1 renal) was > 10 µM, the GI50 (COLO 205 colon) was > 10 µM and the TGI (COLO 205 colon) was > 10 µM. The GI50 (DU-145 prostate) was > 10 µM, the TGI (DU-145 prostate) was > 10 µM and the GI50 (HCC-2998 colon) was 5.62 µM. For the same compound, the TGI (HCC-2998 colon) was > 10 µM, the GI50 (HCT-116 colon) was 2140 nM and the TGI (HCT-116 colon) was 4.14 µM. For the same compound, the GI50 (HCT-15 colon) was > 10 µM, the TGI (HCT-15 colon) was > 10 µM and the GI50 (HL-60(TB) leukemia) was > 10 µM. The TGI (HL-60(TB) leukemia) was > 10 µM, the GI50 (HOP-62 NSCLC) was > 10 µM and the TGI (HOP-62 NSCLC) was > 10 µM. For the same compound, the GI50 (HOP-92 NSCLC) was > 10 µM, the TGI (HOP-92 NSCLC) was > 10 µM and the GI50 (HS 578T breast) was > 10 µM. For the same compound, the TGI (HS 578T breast) was > 10 µM, the GI50 (HT29 colon) was 8.05 µM and the TGI (HT29 colon) was > 10 µM. For the same compound, the GI50 (IGROV1 ovarian) was 4.63 µM, the TGI (IGROV1 ovarian) was > 10 µM and the GI50 (K-562 leukemia) was 6.41 µM. The TGI (K-562 leukemia) was > 10 µM, the GI50 (KM12 colon) was > 10 µM and the TGI (KM12 colon) was > 10 µM. The GI50 (LOX IMVI melanoma) was 4.89 µM, the TGI (LOX IMVI melanoma) was > 10 µM and the GI50 (M14 melanoma) was > 10 µM. For the same compound, the TGI (M14 melanoma) was > 10 µM, the GI50 (MALME-3M melanoma) was > 10 µM and the TGI (MALME-3M melanoma) was > 10 µM. It also gave a GI50 (MCF7 breast) of 2520 nM, a TGI (MCF7 breast) of 7.76 µM and a GI50 (MDA-MB-231 breast) of 4.64 µM. The TGI (MDA-MB-231 breast) was > 10 µM, the GI50 (MDA-MB-435) was > 10 µM and the TGI (MDA-MB-435) was > 10 µM. The GI50 (MOLT-4 leukemia) was 3.4 µM, the TGI (MOLT-4 leukemia) was > 10 µM and the GI50 (NCI-H226 lung) was > 10 µM. The TGI (NCI-H226 lung) was > 10 µM, the GI50 (NCI-H23 lung) was > 10 µM and the TGI (NCI-H23 lung) was > 10 µM. For the same compound, the GI50 (NCI-H460 lung) was > 10 µM, the TGI (NCI-H460 lung) was > 10 µM and the GI50 (NCI/ADR-RES ovarian) was > 10 µM. The TGI (NCI/ADR-RES ovarian) was > 10 µM, the GI50 (OVCAR-3 ovarian) was 2230 nM and the TGI (OVCAR-3 ovarian) was 4.82 µM. The GI50 (OVCAR-4 ovarian) was > 10 µM, the TGI (OVCAR-4 ovarian) was > 10 µM and the GI50 (OVCAR-5 ovarian) was > 10 µM. The TGI (OVCAR-5 ovarian) was > 10 µM, the GI50 (OVCAR-8 ovarian) was 9.54 µM and the TGI (OVCAR-8 ovarian) was > 10 µM. The GI50 (PC-3 prostate) was 4.64 µM, the TGI (PC-3 prostate) was > 10 µM and the GI50 (RPMI-8226 leukemia) was 4.98 µM. For the same compound, the TGI (RPMI-8226 leukemia) was > 10 µM, the GI50 (RXF 393 renal) was 3.46 µM and the TGI (RXF 393 renal) was > 10 µM. For the same compound, the GI50 (SF-268 CNS) was 3.16 µM, the TGI (SF-268 CNS) was > 10 µM and the GI50 (SF-295 CNS) was > 10 µM. The TGI (SF-295 CNS) was > 10 µM, the GI50 (SF-539 CNS) was > 10 µM and the TGI (SF-539 CNS) was > 10 µM. For the same compound, the GI50 (SK-MEL-2 melanoma) was > 10 µM, the TGI (SK-MEL-2 melanoma) was > 10 µM and the GI50 (SK-MEL-28 melanoma) was 8 µM. The TGI (SK-MEL-28 melanoma) was > 10 µM, the GI50 (SK-MEL-5 melanoma) was > 10 µM and the TGI (SK-MEL-5 melanoma) was > 10 µM. For the same compound, the GI50 (SK-OV-3 ovarian) was > 10 µM, the TGI (SK-OV-3 ovarian) was > 10 µM and the GI50 (SN12C renal) was 6.69 µM. The TGI (SN12C renal) was > 10 µM, the GI50 (SNB-19 CNS) was > 10 µM and the TGI (SNB-19 CNS) was > 10 µM. The GI50 (SNB-75 CNS) was > 10 µM, the TGI (SNB-75 CNS) was > 10 µM and the GI50 (SR leukemia) was 2590 nM. The TGI (SR leukemia) was 8.41 µM, the GI50 (SW-620 colon) was 5.28 µM and the TGI (SW-620 colon) was > 10 µM. The GI50 (T-47D breast) was 6.56 µM, the TGI (T-47D breast) was > 10 µM and the GI50 (TK-10 renal) was > 10 µM. For the same compound, the TGI (TK-10 renal) was > 10 µM, the GI50 (U251 CNS) was > 10 µM and the TGI (U251 CNS) was > 10 µM. For the same compound, the GI50 (UACC-62 melanoma) was > 10 µM, the TGI (UACC-62 melanoma) was > 10 µM and the GI50 (UO-31 renal) was > 10 µM. The TGI (UO-31 renal) was > 10 µM.
